Measurements as given in patent publication US9132084B2, “Methods for administration and formulations for the treatment of regional adipose tissue” (NEOTHETICS, INC., priority 2009, dated 2015).

Assay: Plasma pharmacokinetics following a single intravenous and subcutaneous injection of a combination of formoterol and budesonide
Settings: for AUC(0-inf): AUCinf; for bioavailability: F (bioavailability); for concentration at 0.0333 hr: male 1-0771, 0.0333 hr; for concentration at 0.0833 hr: male 1-0771, 0.0833 hr; for concentration at 0.167 hr: male 1-0771, 0.167 hr; for concentration at 0.333 hr: male 1-0771, 0.333 hr; for concentration at 0.5 hr: male 1-0771, 0.500 hr; for concentration at 0.75 hr: male 1-0771, 0.750 hr; for concentration at 1 hr: male 1-0771, 1.00 hr; for concentration at 2 hr: male 1-0771, 2.00 hr; for concentration at 4 hr: male 1-0771, 4.00 hr; for concentration at 8 hr: male 1-0771, 8.00 hr; for concentration at 24 hr: male 1-0771, 24.0 hr
Protocol: Formoterol fumarate dehydrate and budesonide were formulated in 2% PEG-400 in saline. 1 male and 1 female non-naive Gottingen minipigs (8 to 12 kg upon receipt per protocol) were utilized. The animals were housed individually.
Each minipig received a single IV injection of the combined formoterol and budesonide formulation followed by testing of the SC doses. Each dose was separated by at least a 3-day washout period. The IV dose was administered by slow bolus (1 minute; 0.017 hr) into the marginal ear vein, whereas the first SC dose was administered as a bolus injection along the back (neck-region) where there was a longitudinal fat depot. The second SC dose was distributed in 5 separate proximal SC injections separated by approximately 2 cm. Blood samples (approximately 4 mL) were collected via the branchiocephalic plexus at pre-dose and at 2, 5, 10, 20, 30 and 45 minutes, and at 1, 2, 4, 8 and 24 hr post-dose. Blood samples were placed in tubes containing K2-EDTA as the anticoagulant. Samples were processed to plasma by centrifugation and stored frozen at approximately −70° C. (+/−15° C.) until shipment for analysis.
Plasma samples were analyzed for formoterol and budesonide using a qualified liquid chromatography/mass spectrometry/mass mass spectrometry (LC/MS/MS) method. The lower limit of quantitation (LLOQ) was 1.00 pg/mL for formoterol and 25.0 pg/mL for budesonide.
Non-compartmental pharmacokinetic parameters were calculated using WinNonlin 5.2 software, NCA model 202, IV infusion input for the IV data and NCA model 200, extravascular input for the SC data. Individual plasma concentrations for each animal were used in the calculation of pharmacokinetic parameters. Nominal collection times and doses were used in the calculations. The area under the plasma concentration-time curve (AUC) was calculated using linear trapezoidal approximation (linear/log interpolation). Concentration values below the assay limit of quantitation were set to zero for calculations. The maximum plasma concentration (Cmax) and the time of its occurrence (Tmax) were verified by inspection. The half-life (t1/2) values were calculated using the last 3 plasma concentrations with nonzero values, if data permitted.

[1] = male, Gottingen, minipig, in vivo, formoterol 0.4 μg/kg SC1 single site, combination, male 1-0771
[2] = male, Gottingen, minipig, in vivo, formoterol 0.4 μg/kg SC5 (5 sites), combination, male 1-0771
[3] = male, Gottingen, minipig, in vivo, Plasma concentration of formoterol, SC1 0.4 μg/kg, combination
[4] = male, Gottingen, minipig, in vivo, Plasma concentration of formoterol, SC5 0.4 μg/kg, combination
[5] = male, Gottingen, minipig, in vivo, iv, 0.4 ug/kg
[6] = male, Gottingen, minipig, in vivo, iv, 0.4 ug/kg, formoterol 0.4 μg/kg IV in combination with budesonide, male 1-0771
[7] = male, Gottingen, minipig, in vivo, iv, Plasma concentration of formoterol, IV 0.4 μg/kg, combination

COc1ccc(CC(C)NCC(O)c2ccc(O)c(NC=O)c2)cc1 (centres unmarked) [Formoterol, formoterol]
tlast (formoterol 0.4 μg/kg IV in combination with budesonide, male 1-0771): 8.00 h
tlast (formoterol 0.4 μg/kg SC1 single site, combination, female 2-0623): 8.00 h
tlast (formoterol 0.4 μg/kg SC1 single site, combination, male 1-0771): 24.0 h
tlast (formoterol 0.4 μg/kg SC5 (5 sites), combination, female 2-0623): 24.0 h
tlast (formoterol 0.4 μg/kg SC5 (5 sites), combination, male 1-0771): 24.0 h
partition ratio (plasma Cmax subcutaneous / intravenous) (formoterol with budesonide in about 2% PEG-400 in saline): 0.5
AUC(0-inf) [1]: 0.627 ng·h/mL
AUC(0-inf) [2]: 0.579 ng·h/mL
Cmax [1]: 0.378 ng/mL
Cmax [2]: 0.217 ng/mL
bioavailability [1]: 238%
bioavailability [2]: 219%
concentration at 0 hr (male, Gottingen, minipig, in vivo, Plasma concentration of formoterol, SC1 0.4 μg/kg, combination, male 1-0771, 0 hr): 0.00463 ng/mL
concentration at 0.0333 hr [3]: 0.378 ng/mL
concentration at 0.0833 hr [3]: 0.294 ng/mL
concentration at 0.167 hr [3]: 0.147 ng/mL
concentration at 0.333 hr [3]: 0.121 ng/mL
concentration at 0.5 hr [3]: 0.161 ng/mL
concentration at 0.75 hr [3]: 0.079 ng/mL
concentration at 1 hr [3]: 0.0833 ng/mL
concentration at 2 hr [3]: 0.0822 ng/mL
concentration at 4 hr [3]: 0.0422 ng/mL
concentration at 8 hr [3]: 0.0152 ng/mL
concentration at 24 hr [3]: 0.00287 ng/mL
concentration at 0.0333 hr [4]: 0.133 ng/mL
concentration at 0.0833 hr [4]: 0.216 ng/mL
concentration at 0.167 hr [4]: 0.217 ng/mL
concentration at 0.333 hr [4]: 0.15 ng/mL
concentration at 0.5 hr [4]: 0.0938 ng/mL
concentration at 0.75 hr [4]: 0.0941 ng/mL
concentration at 1 hr [4]: 0.0801 ng/mL
concentration at 2 hr [4]: 0.0711 ng/mL
concentration at 4 hr [4]: 0.0359 ng/mL
concentration at 8 hr [4]: 0.0181 ng/mL
concentration at 24 hr [4]: 0.0013 ng/mL
Tmax [1]: 0.0333 h
Tmax [2]: 0.167 h
Vd [5]: 3.94 L/kg
clearance [5]: 25.3 mL/min/kg
AUC(0-inf) [6]: 0.264 ng·h/mL
Cmax [6]: 0.41 ng/mL
Tmax [6]: 0.0333 h
half-life (male, Gottingen, minipig, in vivo, iv, 0.4 ug/kg, t1/2, formoterol 0.4 μg/kg IV in combination with budesonide, male 1-0771): 2.54 h
concentration at 0.0333 hr [7]: 0.41 ng/mL
concentration at 0.0833 hr [7]: 0.0996 ng/mL
concentration at 0.167 hr [7]: 0.0902 ng/mL
concentration at 0.333 hr [7]: 0.0689 ng/mL
concentration at 0.5 hr [7]: 0.057 ng/mL
concentration at 0.75 hr [7]: 0.0488 ng/mL
concentration at 1 hr [7]: 0.0813 ng/mL
concentration at 2 hr [7]: 0.0265 ng/mL
concentration at 4 hr [7]: 0.0183 ng/mL
concentration at 8 hr [7]: 0.00533 ng/mL
half-life (male, Gottingen, minipig, in vivo, t1/2, formoterol 0.4 μg/kg SC1 single site, combination, male 1-0771): 5.51 h
half-life (male, Gottingen, minipig, in vivo, t1/2, formoterol 0.4 μg/kg SC5 (5 sites), combination, male 1-0771): 4.19 h
absorption after SC administration (single site and divided over 5 sites, combination): well absorbed
